One molecule from patent publication US9164084B2, “Methods for determining aggressiveness of a cancer and treatment thereof” (Purdue Research Foundation, priority 2012, dated 2015) can be followed below.

Molecules are shown by their SMILES. “Also recorded” adds a separate entry of the source.

The subject of test [1] is PC-3 cells. Nature of the test: Flow cytometry analysis of cell cycle and apoptosis in PC-3 cells. The test is classed as cell-based, human. In general terms: In flow cytometry, cells or beads pass a laser one at a time.
Test [2] has as its system PC-3 cells. Nature of the test: Cell growth / viable cell number of PC-3 cells. It is filed as cell-based, human. As to the method: (§1) Because cholesteryl ester accumulation was found in PCa but not in normal prostate, how cell viability could be affected by regulating cholesteryl ester levels with the ACAT inhibitor Avasimibe was evaluated. […] The inhibitory effect of Avasimibe on the growth of PC-3 and LNCaP-HP cells was considerably greater than that in cholesteryl ester poor cancer cells including LNCaP-LP, DU145, and C4-2.

For test [3], the system named is LNCaP-HP cells. In words: Cell growth / viable cell number of LNCaP-HP cells. The test is classed as cell-based, human. The settings on record: for proliferation (growth) rate, MTT assay: treatment started at day 1 (FIG. 14). The procedure:
To study the impact of cholesteryl ester storage on tumor growth, the growth rate of LNCaP-HP and LNCaP-LP cells were measured using MTT assay (a colorimetric assay for measuring number of cells present, where the color is proportional to the number of cells).
as §1

Test [4] concerns pancreatic cancer cells (BxPC3 and PANC-1). Nature of the test: Western blot of pancreatic cancer cells before and after avasimibe treatment. It is filed as cell-based. The settings on record: pancreatic cancer cells (FIG. 49). The procedure:
In order to understand how lipids accumulate in pancreatic cancer, several in vitro studies using two common pancreatic cancer cell lines, BxPC3 and PANC-1 were performed. Since ACAT is the enzyme responsible for the conversion from cholesterol to cholesteryl ester the effects of inhibiting ACAT-1, the universally expressed isoform, on lipid metabolism in pancreatic cancer cells were first examined. […] To explore the molecular mechanism, western blot of the cells before and after avasimibe treatment were performed.
For orientation: In western blotting, separated proteins are transferred to a membrane and probed.

Test [5] deals with LNCaP-HP cells. In words: Immunoblotting of SREBP and LDLr in LNCaP-HP cells. It is filed as cell-based, human. The text has this: (§2) Finally, it was investigated whether Avasimibe-mediated suppression of tumor growth is associated with the regulation of cholesterol metabolism machinery. It was hypothesized that abrogating ACAT activity would up-regulate cellular level of free cholesterol and then down-regulate SREBP and LDLr in PCa cells (FIG. 40). […] To provide an explanation for enhanced uptake of LDL and then storage of excess cholesterol in the form of cholesteryl ester in aggressive prostate cancer, it was noticed that LDL is the primary carrier of essential polyunsaturated fatty acid including arachidonic acid (AA). Inside cells, AA is converted to a wide range of eicosanoids, which have been implicated in various pathological processes such as inflammation and cancer.

The subject of test [6] is BxPC3 cells. Nature of the test: Cell viability (ATP level) of BxPC3 cells. It is filed as cell-based. The settings on record: 7.5 μM for various periods. The procedure:
The cells were treated with […] (control) or 7.5 μM avasimibe for various periods. Then cells were lysed and ATP level were quantified to determine the number of viable cells.
As the ACAT-1 inhibitor, avasimibe, effectively removed lipid droplet or cholesteryl ester accumulation in pancreatic cancer cells, the use of avasimibe as a chemotherapy agent for pancreatic cancer was explored. The effects of avasimibe on cell viability in BxPC3 and PANC-1 cells were examined.

In test [7] the test system is PC-3 cells. Nature of the test: Immunoblotting of SREBP and LDLr in PC-3 cells. The test is classed as cell-based, human.
Excerpt: It has been shown that mTOR plays a key role in regulating the function of sterol regulatory element-binding proteins (SREBPs) which control lipid and cholesterol homeostasis. Specifically, when cellular sterol levels decrease, SREBP-1a and/or -2 precursors are cleaved to activate the expression of genes involved in de novo cholesterol synthesis and LDL-cholesterol uptake. […] Similar results for on LNCaP-HP cells were obtained.
as §2

The test system of test [8] is BxPC3 cells. In words: CRS microscopy of lipid droplets in BxPC3 cells. The test is classed as cell-based. As to conditions: 7.5 μM for 24 h (FIG. 48). An excerpt:
Coherent Raman scattering (CRS) microscopy is a label-free imaging technique that is highly sensitive to C—H bond abundant structures such as membranes and lipid droplets. By matching the C—H bond stretching vibration mode at 2850 cm^−1, lipid distribution was imaged in human pancreatic cancer (n=10) and normal tissues (n=10) provided by IU School of Medicine. A remarkable amount of lipid droplets in all pancreatic cancer tissues was observed (FIG. 47, Panel B). […] Furthermore, by coupling a spectrometer to the CRS microscope, the devices was able to dissect the composition of individual lipid droplets through confocal Raman spectral analysis. […] Using emulsified mixtures of cholesteryl oleate and glyceryl trioleate (Sigma), it was verified that height ratio of the Raman peak at 702 cm^−1 the Raman peak at 1442 cm^−1 (CH^2 bending vibration mode) is linearly proportional to molar percentage of cholesteryl ester (FIG. 47, Panel D) out of the total neutral lipids. Based on this calibration curve, it was concluded that over 80% of neutral lipids in human pancreatic cancer tissues are cholesteryl ester. In order to understand how lipids accumulate in pancreatic cancer, several in vitro studies using two common pancreatic cancer cell lines, BxPC3 and PANC-1 were performed. […]

For test [9], the system named is PC-3 cells. Nature of the test: Cellular uptake of DiI-labeled LDL in PC-3 cells. The test is classed as cell-based, human. The settings on record: PC-3, 2-day treatment. An excerpt:
Because cholesterol can be either de novo synthesized via the mevalonate pathway or taken up from exogenous lipoproteins, the source of cholesterol used for cholesteryl ester accumulation was investigated. PC-3 cell were first treated with Simvastatin, an inhibitor of 3-hydroxy-3-methylglutaryl coenzyme A HMG-CoA reductase, the rate-limiting enzyme of the mevalonate pathway. […] In contrast, after treating cells with lipoprotein-deficient serum (LPDS), lipid droplets nearly disappeared in cholesteryl ester rich PC-3 and LNCaP-HP cells (FIG. 29, Panel A), but remained the same amount in cholesteryl ester poor cells including LNCaP-LP, DU145, and C4-2. Re-addition of low-density lipoprotein (LDL) into the LPDS medium restored lipid droplets and cholesteryl ester in both PC-3 and LNCaP-HP cells (FIG. 29, Panel B).
Finally, it was investigated whether Avasimibe-mediated suppression of tumor growth is associated with the regulation of cholesterol metabolism machinery. It was hypothesized that abrogating ACAT activity would up-regulate cellular level of free cholesterol and then down-regulate SREBP and LDLr in PCa cells (FIG. 40). […]

Turning to `CC(C)c1cc(C(C)C)c(CC(=O)NS(=O)(=O)Oc2c(C(C)C)cccc2C(C)C)c(C(C)C)c1` [Avasimibe, avasimibe], in the test with PC-3 cells [1], the “G2/M phase population compared to control group” value is on record as 2 times smaller. Also, in the test with PC-3 cells [1], the “sub G0/G1 population compared to control group” value is recorded as approximately 3 times larger. Further, the IC50 (commonly the point on the concentration scale where inhibition reaches its midpoint) stood at 7.32 µM with PC-3 cells [2] (Homo sapiens, 72 h, PC-3 cell, 3 days) and 9.64 µM with LNCaP-HP cells [3] (Homo sapiens, 72 h, LNCaP-HP cell, 3 days). Moreover, the cytotoxicity at 7.5 µM is approximately 48% with PC-3 cells [2] (Homo sapiens, 72 h, PC-3 cells, 3 days of 7.5 μM, read-out: reduction in viable cell number) and approximately 55% in the test on LNCaP-HP cells [3] (Homo sapiens, 72 h, LNCaP-HP cells, 3 days of 7.5 μM, read-out: reduction in viable cell number). The “proliferation (viable cell number)” value in the test on PC-3 cells [2] (PC-3 cells (FIG. 31)) and with LNCaP-HP cells [3] (LNCaP-HP cells (FIG. 31)) was “significantly hampered the proliferation” in each case. Further, the “proliferation (growth) rate, MTT assay” value in the test on LNCaP-HP cells [3] (LNCaP-HP cells) is reported as “significantly slowed down the proliferate rate”; in the test with LNCaP-HP cells [3] (LNCaP-HP cells, listed as avasimide), “significantly reduced growth rate”. Also, the “HMGCoA reductase level (western blot)” value in test [4] is listed as “significantly reduced the level of HMGCoA reductase”; in test [4] (listed as avasimibe), “reduced the expression of HMGCoA reductase”. In test [4] (listed as avasimibe), the “LDL receptor level (western blot)” value is given as “not affected”. Moreover, the “LDLr level (immunoblot)” value with LNCaP-HP cells [5] and in the test on PC-3 cells [7] was “down-regulation” throughout. In addition, the “SREBP-2 level (immunoblot)” value in the test on LNCaP-HP cells [5] is reported as “down-regulation”. Besides, the entries for the “cell viability (ATP level)” value with BxPC3 cells [6] and in the test on BxPC3 cells [6] (listed as avasimibe) were “significantly reduced cell viability” and “significantly reduced the viability; also recorded: dramatically reduced the cell viability”, respectively. Further, the “SREBP-1 level (immunoblot)” value in the test on PC-3 cells [7] was “down-regulation”. The lipid droplet amount result in the test on BxPC3 cells [8] is on record as “reduced lipid droplet amount”; in the test on BxPC3 cells [8] (listed as avasimibe), “reduced the lipid droplet amount; also recorded: significantly reduced the amount of lipid droplets”. The “uptake of DiI-labeled LDL” value with PC-3 cells [9] is on record as “drastically inhibited LDL uptake”.
